Earlier results in US20050095288A1, “Decongestant and expectorant tablets” (Andrx Labs, LLC, priority 2003, published 2005).

Settings: background statement, no test described

## COc1ccccc1OCC(O)CO (stereo not shown) [Guaifenesin, 3-(2-methoxyphenoxy)-1,2-propane-diol]
  typical plasma half-life: approximately one
